Assay results from patent US20240050449A1, “Use of Acetyltanshinone IIA in Preparation of Medicament for Treating Lung Cancer and Medicament for Treating Lung Cancer” (UNIVERSITY OF MACAU, priority 2022, published 2024).
“Also recorded” adds a separate entry of the source.

Columns and labels:
[1] = test system: A549 cell-derived xenograft tumors; assay: Mouse xenograft study; assay type: in vivo, nude mice; details: 25 mg/kg intraperitoneally every 3 days, day 31
Protocol: Cell line xenograft experiments were performed in 6-week-old female nude mice, 4×10^6 A549 cells were mixed 1:1 with matrigel-basement membrane matrix (Corning) and injected subcutaneously into nude mice. Tumors were allowed to grow to around […] and mice were randomly selected to receive treatment with ATA (25 mg/kg) or Erlotinib (25 mg/kg) intraperitoneally every 3 days for 31 days. ATA was formulated with 25% ethanol, 60% PEG300 (Sigma-Aldrich), and 15% Tween 80 (Sigma-Aldrich). Erlotinib was formulated in 5% DMSO, 30% PEG300, 5% Tween 80 and 60% H2O. Mouse body weight and tumor volume were measured every 3 days by a scale and caliper. Tumor volume (mm^3) was calculated using the formula. π/6×length (mm)×[width (mm)]^2. At least 6 mice in the control and treatment groups were evaluated during the study. All mice were sacrificed after 31 days of drug treatment, tumors were collected, and tumor weights were recorded. All animal studies were conducted in accordance with the requirements of the Animal Research Ethics Committee of Macao University and in compliance with all relevant ethical requirements.
To determine if ATA could also produce the same effect in vivo, this example injected A549 cells subcutaneously into nude mice to form tumor xenografts. Mice were randomly assigned to three groups. When the size of each tumor increased to a volume of approximately 100 mm^3, mice were injected intraperitoneally with vehicle control, ATA (25 mg/kg), or Erlotinib (25 mg/kg) every 3 days for 31 days. The tumor size and body weight of each mouse were measured every 3 days until the end of the animal experiment on day 31.

H1975 cells [2] = assay: Spheroid formation experiment, H1975 cells; assay type: cell-based
From the text: The density of H1975 was 500 cells per well and the density of H1650 was 1000 cells per well in an ultra-low adhesion round bottom 96 well plate (Corning, #7007).

MET = assay: Western blot, MET protein levels in drug-resistant NSCLC cells; assay type: cell-based; details: 2 μM
Protocol: Cells were washed once with PBS and frozen in RIPA lysis buffer containing protease and phosphatase inhibitors (Sigma-Aldrich) for 30 min. After sonication and centrifugation, the total protein concentration was determined by protein assay using Bio-Rad concentrated dye reagent (Bio-Rad). Equal amounts of protein ([…]) from each sample were separated by SDS-PAGE and electrotransferred to nitrocellulose membranes (GE Healthcare). Detection was performed on the membrane with a 1:1000 dilution of specific primary antibody followed by incubation with a 1:2000 dilution of the HRP conjugated secondary antibody. Finally, immunoreactivity is detected with a chemiluminescent substrate (Clarity Western ECL substrate; Bio-Rad). […] Aurora A (#ab13824) and PLK1 (#ab189139) antibodies were from Abcam.

p70S6K = biological target: T1, p70S6K (Homo sapiens, UniProt P23443); assay: Western blot, p70S6K protein levels in drug-resistant NSCLC cells; assay type: cell-based; details: 48 h
T1 construct: endogenous in cells; host or cells: A549, H358, H1975, H1650 for the Western blots
T1 sequence (P23443 whole entry): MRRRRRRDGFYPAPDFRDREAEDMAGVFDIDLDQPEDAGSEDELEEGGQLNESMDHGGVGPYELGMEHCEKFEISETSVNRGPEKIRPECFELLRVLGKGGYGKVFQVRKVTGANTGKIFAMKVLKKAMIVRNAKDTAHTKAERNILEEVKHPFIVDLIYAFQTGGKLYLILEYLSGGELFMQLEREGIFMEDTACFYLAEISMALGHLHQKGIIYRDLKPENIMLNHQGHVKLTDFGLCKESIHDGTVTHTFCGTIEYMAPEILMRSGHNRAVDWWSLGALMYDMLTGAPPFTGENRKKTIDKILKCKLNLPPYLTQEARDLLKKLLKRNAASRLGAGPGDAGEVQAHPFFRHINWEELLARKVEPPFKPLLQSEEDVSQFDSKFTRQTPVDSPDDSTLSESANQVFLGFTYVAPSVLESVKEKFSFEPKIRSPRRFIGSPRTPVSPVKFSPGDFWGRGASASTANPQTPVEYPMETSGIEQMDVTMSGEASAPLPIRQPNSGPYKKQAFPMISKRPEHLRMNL
Protocol: Cells were washed once with PBS and frozen in RIPA lysis buffer containing protease and phosphatase inhibitors (Sigma-Aldrich) for 30 min. After sonication and centrifugation, the total protein concentration was determined by protein assay using Bio-Rad concentrated dye reagent (Bio-Rad). Equal amounts of protein ([…]) from each sample were separated by SDS-PAGE and electrotransferred to nitrocellulose membranes (GE Healthcare). Detection was performed on the membrane with a 1:1000 dilution of specific primary antibody followed by incubation with a 1:2000 dilution of the HRP conjugated secondary antibody. Finally, immunoreactivity is detected with a chemiluminescent substrate (Clarity Western ECL substrate; Bio-Rad). EGFR (#4267S), MET (#8198S), p-Akt (#9271L), akt (#9272S), p-mTOR (#5536S), mTOR (#2983S), p-p70S6K (#9234S), p70S6K (#2708S), p-S6RP (#4857S), S6RP (#2217S), p-4E-BP1 (#9455S) antibodies. 4E-BP1 (#9644S), p53 (#2527S), p21 waf1/Cip1 (#2947S), survivin (#2808S), cyclin B1 (#12231S), cyclin D3 (#2936S) and GAPDH (#2118S) were purchased from Cell Signaling Technology. Aurora A (#ab13824) and PLK1 (#ab189139) antibodies were from Abcam.

H1975 cells [3] = assay: Colony formation (cloning experiment), H1975 cells; assay type: cell-based; details: 0.125 μM, 10 days
Protocol: (§1) Cells were seeded at a density of 1×10^3 per well in 6-well plates and cultured for 24 h. The cells were treated with medicament or DMSO for 10 days, after which the cells were washed once with 1×PBS, fixed with 4% paraformaldehyde for 20 min, and stained with 0.1% crystal violet for 15 min. The stained cells in each well were imaged and the number of colonies in each well was quantified using ImageJ software.

H1650 cells [4] = assay: MTT cell viability assay, H1650 cells; assay type: cell-based
Protocol: Cells were seeded at a density of 3×10^3 per well in 96-well plates, allowed to attach overnight, and treated with various concentrations of agent. After 72 h of treatment, 10 μL of MTT solution (5 mg/mL) was added to each well and cultured in the plate for 4 h. The crystallized formazan was dissolved in 100 μL of 10% (w/v) SDS and 0.01 mol/L HCl solution for 24 h, and then the value was read by spectrophotometry at 595 nm using a microplate reader.

H1650 cells [5] = assay: Colony formation (cloning experiment), H1650 cells; assay type: cell-based; details: 10 days
Protocol: as §1

H358 cells = assay: Colony formation (cloning experiment), H358 cells; assay type: cell-based; details: 10 days
Protocol: as §1

`CC(=O)Oc1c(OC(C)=O)c2c(C)coc2c2ccc3c(c12)CCCC3(C)C` [ATA, acetyltanshinone IIA] was tested, and the “reduction of tumor size compared to the control group” value [1] was 72.1%, the “reduction of tumor weight” value [1] was 77.4% and the “spheroid growth / sphere size” value (H1975 cells [2]; 2 μM, 0 to 8 days) was “completely inhibited”. The spheroid formation (H1975 cells [2]; both 1 and 2 μM) was “strongly inhibited”, the “decrease of MET protein levels” value (MET; A549 cells, 72 or 96 h) was ≤ 90% and the “reduction of MET protein levels” value (MET; all four cell lines, 48 h) was 70-90%. The “levels of p70S6K protein and its phosphorylated forms” value (p70S6K; A549, H358, H1975, H1650 cells, 1 or 2 μM) was “greatly reduced”, the “levels of p70S6K” value (p70S6K; A549 and H1650 cells, 2 μM) was “significantly decreased” and the “inhibition of colony formation” value (H1975 cells [3]) was “almost completely inhibited”. For the same compound, the “IC50 ratio of Erlotinib/ATA” value (H1650 cells [4]) was 17.3, the “growth inhibition compared with other agents” value (H1650 cells [4]; ATA 2 μM, 72 h, MTT) was “significantly higher than all three inhibitors; also recorded: greater growth inhibition than combination therapy with Erlotinib and MLN8237” and the IC50 (H1650 cells [4]; MTT, 72 h) was 1280 ± 290 nM. The “reduction of colony-forming capacity” value (H1650 cells [5]; 0.125 μM) was 73%, the “colony formation inhibition compared with Afatinib” value (H1650 cells [5]; 1 μM) was “significantly higher colony formation inhibition than Afatinib” and the “inhibition of colony formation” value (H358 cells; 0.125 μM) was “almost completely inhibited”. For the same compound, the “colony formation inhibition compared with Afatinib” value (H358 cells; 1 μM) was “significantly higher colony formation inhibition than Afatinib”.
